Assay results as given in PubChem BioAssay (NCI).
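In this assay, cells in 96-well plates receive the compound at five concentrations for 48 hours. Endpoints are linearly interpolated between the surrounding concentrations. The concentration for full growth arrest is given as TGI.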 Where a SMILES comes first, the peptide text is derived from it. The star is where a group is joined. Cbz = O=C(OCc1ccccc1)*

Tests used:
Test in all cases: NCI-60 cell line screen, 48 h
[1] = test system: HT29 colon
[2] = test system: SK-MEL-28 melanoma
[3] = test system: MDA-MB-435
[4] = test system: UACC-257 melanoma
[5] = test system: NCI-H522 lung
[6] = test system: HOP-62 NSCLC
[7] = test system: MDA-N
[8] = test system: HCT-15 colon
[9] = test system: HCT-116 colon
[10] = test system: IGROV1 ovarian
[11] = test system: A498 renal
[12] = test system: SW-620 colon
[13] = test system: NCI-H460 lung
[14] = test system: CAKI-1 renal
[15] = test system: SF-539 CNS
[16] = test system: HOP-92 NSCLC
[17] = test system: NCI/ADR-RES ovarian
[18] = test system: OVCAR-4 ovarian
[19] = test system: RXF 393 renal
[20] = test system: UO-31 renal

## Cc1nn(C(=O)Cc2ccccc2)c2c1C(c1ccc([N+](=O)[O-])cc1)SC(N)=N2 (stereo not given)
[1]
  TGI: > 100 µM
[2]
  TGI: > 100 µM
[3]
  TGI: > 100 µM
[4]
  TGI: > 100 µM
[5]
  TGI: > 100 µM
[6]
  TGI: > 100 µM
[7]
  TGI: > 100 µM
[8]
  TGI: > 100 µM
[9]
  TGI: > 100 µM
[10]
  TGI: > 100 µM
[11]
  TGI: > 100 µM
[12]
  TGI: > 100 µM
[13]
  TGI: > 100 µM
[14]
  TGI: > 100 µM
[15]
  TGI: > 100 µM

## O=S1(=O)c2ccccc2N2C(c3ccccc3)=NOC2(c2ccccc2)CC1c1ccc(Br)cc1 (stereo not given)
[1]
  TGI: > 100 µM
[16]
  TGI: > 100 µM
[2]
  TGI: > 100 µM
[3]
  TGI: > 100 µM
[4]
  TGI: > 100 µM
[5]
  TGI: > 100 µM
[6]
  TGI: > 100 µM
[17]
  TGI: > 100 µM
[18]
  TGI: > 100 µM
[7]
  TGI: > 100 µM
[8]
  TGI: > 100 µM
[9]
  TGI: > 100 µM
[10]
  TGI: > 100 µM
[11]
  TGI: > 100 µM
[12]
  TGI: > 100 µM
[19]
  TGI: > 100 µM
[13]
  TGI: > 100 µM
[15]
  TGI: > 100 µM
[20]
  TGI: > 100 µM

## C1=CCC[C@@H]2CN3CCCC/C=C\CCCC[C@H]4C[C@H](CN(CCCCCCCC1)C4)[C@H]2CC3
[1]
  TGI: 20.8 µM
[2]
  TGI: 14.7 µM
[3]
  TGI: 15.7 µM
[4]
  TGI: 18.1 µM
[5]
  TGI: 17.7 µM
[6]
  TGI: 15.6 µM
[18]
  TGI: 26.8 µM
[7]
  TGI: 16.2 µM
[8]
  TGI: 18.3 µM
[9]
  TGI: 16.3 µM
[10]
  TGI: 18 µM
[11]
  TGI: 30.3 µM
[12]
  TGI: 16.4 µM
[13]
  TGI: 18.7 µM
[14]
  TGI: 18.2 µM
[15]
  TGI: 14.9 µM

## COC(=O)CCC(=O)c1ccc2c(c1)CC1(C2)Cc2ccc(C(=O)CCC(=O)OC)cc2C1
[1]
  TGI: > 100 µM
[16]
  TGI: > 100 µM
[3]
  TGI: > 100 µM
[4]
  TGI: > 100 µM
[5]
  TGI: > 100 µM
[6]
  TGI: > 100 µM
[17]
  TGI: > 100 µM
[18]
  TGI: > 100 µM
[7]
  TGI: > 100 µM
[8]
  TGI: > 100 µM
[9]
  TGI: > 100 µM
[10]
  TGI: > 100 µM
[11]
  TGI: > 100 µM
[19]
  TGI: > 100 µM
[15]
  TGI: > 100 µM
[20]
  TGI: > 100 µM

## OCC(O)COCn1cc(Cn2ncc3c(NCc4ccccc4)ncnc32)nn1 (stereo not given)
[1]
  TGI: > 100 µM
[16]
  TGI: > 100 µM
[2]
  TGI: > 100 µM
[3]
  TGI: > 100 µM
[4]
  TGI: > 100 µM
[5]
  TGI: 33.4 µM
[6]
  TGI: > 100 µM
[17]
  TGI: > 100 µM
[18]
  TGI: > 100 µM
[7]
  TGI: > 100 µM
[8]
  TGI: > 100 µM
[9]
  TGI: > 100 µM
[10]
  TGI: > 100 µM
[11]
  TGI: > 100 µM
[12]
  TGI: > 100 µM
[14]
  TGI: > 100 µM
[15]
  TGI: > 100 µM
[20]
  TGI: > 100 µM

## CC(=O)Nn1cnc(C(=N)C#N)c1N
[1]
  TGI: > 100 µM
[2]
  TGI: > 100 µM
[3]
  TGI: > 100 µM
[4]
  TGI: > 100 µM
[5]
  TGI: > 100 µM
[6]
  TGI: > 100 µM
[17]
  TGI: > 100 µM
[18]
  TGI: > 100 µM
[7]
  TGI: > 100 µM
[8]
  TGI: > 100 µM
[9]
  TGI: > 100 µM
[10]
  TGI: > 100 µM
[11]
  TGI: > 100 µM
[12]
  TGI: > 100 µM
[13]
  TGI: > 100 µM
[14]
  TGI: > 100 µM
[15]
  TGI: > 100 µM
[20]
  TGI: > 100 µM

## NNC(=O)CC(=O)Nc1ccc(S(=O)(=O)c2ccc(NC(=O)CC(=O)NN)cc2)cc1
[1]
  TGI: > 100 µM
[16]
  TGI: > 100 µM
[2]
  TGI: > 100 µM
[3]
  TGI: > 100 µM
[4]
  TGI: > 100 µM
[5]
  TGI: > 100 µM
[6]
  TGI: > 100 µM
[17]
  TGI: > 100 µM
[18]
  TGI: > 100 µM
[8]
  TGI: > 100 µM
[9]
  TGI: > 100 µM
[10]
  TGI: > 100 µM
[11]
  TGI: > 100 µM
[12]
  TGI: > 100 µM
[19]
  TGI: > 100 µM
[13]
  TGI: > 100 µM
[14]
  TGI: > 100 µM
[15]
  TGI: > 100 µM
[20]
  TGI: > 100 µM

## O=C1c2cn[nH]c2N=C(Nc2ccccc2)C1N=Cc1ccc([N+](=O)[O-])cc1 (stereo not given)
[1]
  TGI: > 10 µM
[3]
  TGI: > 10 µM
[4]
  TGI: > 10 µM
[5]
  TGI: > 10 µM
[18]
  TGI: > 10 µM
[7]
  TGI: > 10 µM
[9]
  TGI: > 10 µM
[13]
  TGI: > 10 µM
[15]
  TGI: > 10 µM
[20]
  TGI: > 10 µM

## C=CCc1cccc2cc(C(=O)Nc3ccc(C)cc3)c(=N)oc12
[1]
  TGI: > 100 µM
[16]
  TGI: > 100 µM
[2]
  TGI: > 100 µM
[3]
  TGI: > 100 µM
[4]
  TGI: > 100 µM
[5]
  TGI: > 100 µM
[6]
  TGI: > 100 µM
[17]
  TGI: > 100 µM
[18]
  TGI: > 100 µM
[7]
  TGI: > 100 µM
[8]
  TGI: > 100 µM
[9]
  TGI: > 100 µM
[10]
  TGI: > 100 µM
[11]
  TGI: > 100 µM
[12]
  TGI: > 100 µM
[19]
  TGI: > 100 µM
[13]
  TGI: > 100 µM
[14]
  TGI: > 100 µM

## CCOC(=O)/C(=C\c1cn(C(C)=O)c2ccccc12)P(C)(=O)OCC (stereo not given)
[1]
  TGI: > 100 µM
[16]
  TGI: 66.8 µM
[2]
  TGI: > 100 µM
[3]
  TGI: > 100 µM
[5]
  TGI: 67.2 µM
[6]
  TGI: > 100 µM
[17]
  TGI: > 100 µM
[7]
  TGI: > 100 µM
[8]
  TGI: > 100 µM
[9]
  TGI: > 100 µM
[10]
  TGI: > 100 µM
[11]
  TGI: > 100 µM
[12]
  TGI: > 100 µM
[14]
  TGI: > 100 µM
[15]
  TGI: 45.1 µM
[20]
  TGI: > 100 µM

## O=C1CCCCCCCCCCC1CN1CCOCC1 (stereo not given)
[16]
  TGI: > 100 µM
[2]
  TGI: > 100 µM
[3]
  TGI: > 100 µM
[4]
  TGI: > 100 µM
[5]
  TGI: > 100 µM
[6]
  TGI: > 100 µM
[18]
  TGI: > 100 µM
[7]
  TGI: > 100 µM
[8]
  TGI: > 100 µM
[9]
  TGI: > 100 µM
[10]
  TGI: > 100 µM
[12]
  TGI: > 100 µM
[19]
  TGI: > 100 µM
[15]
  TGI: > 100 µM
[20]
  TGI: > 100 µM

## CCOC(=O)C(NC(=O)c1ccccc1)(c1ccc(S(=O)(=O)Nc2onc(C)c2C)cc1)C(F)(F)F (stereo not given)
[1]
  TGI: > 100 µM
[16]
  TGI: > 100 µM
[2]
  TGI: > 100 µM
[3]
  TGI: > 100 µM
[4]
  TGI: > 100 µM
[6]
  TGI: > 100 µM
[17]
  TGI: > 100 µM
[18]
  TGI: > 100 µM
[7]
  TGI: > 100 µM
[8]
  TGI: > 100 µM
[9]
  TGI: > 100 µM
[10]
  TGI: > 100 µM
[12]
  TGI: > 100 µM
[19]
  TGI: > 100 µM
[13]
  TGI: > 100 µM
[14]
  TGI: > 100 µM
[15]
  TGI: > 100 µM
[20]
  TGI: > 100 µM

## CNC(=O)N1CN(c2ccccc2)C2(CCN(Cc3ccccc3)CC2)C1=O
[1]
  TGI: > 100 µM
[2]
  TGI: > 100 µM
[4]
  TGI: > 100 µM
[5]
  TGI: > 100 µM
[6]
  TGI: > 100 µM
[17]
  TGI: 51.3 µM
[7]
  TGI: > 100 µM
[8]
  TGI: > 100 µM
[9]
  TGI: > 100 µM
[10]
  TGI: > 100 µM
[12]
  TGI: > 100 µM
[19]
  TGI: > 100 µM
[14]
  TGI: > 100 µM
[15]
  TGI: > 100 µM
[20]
  TGI: > 100 µM

## COC(=O)C(CC(C)C)NC(=O)C(CCCN=C(N)N)NC(=O)OCc1ccccc1 (stereo not drawn) (Cbz-Arg-Leu-OMe; configuration not given here)
[1]
  TGI: > 100 µM
[16]
  TGI: > 100 µM
[2]
  TGI: > 100 µM
[3]
  TGI: > 100 µM
[5]
  TGI: > 100 µM
[6]
  TGI: > 100 µM
[17]
  TGI: > 100 µM
[18]
  TGI: > 100 µM
[7]
  TGI: > 100 µM
[8]
  TGI: > 100 µM
[9]
  TGI: > 100 µM
[10]
  TGI: > 100 µM
[12]
  TGI: > 100 µM
[19]
  TGI: > 100 µM
[13]
  TGI: > 100 µM
[14]
  TGI: > 100 µM
[20]
  TGI: > 100 µM
